{"source": "the kinase profiling compilation of Christmann-Franck et al. (2016)", "experiment_in_all_cases": "radiometric filter-binding kinase assay, Kinase HotSpot", "settings_in_all_cases": "compound 0.5 µM; ATP 10 µM", "key": {"ADRBK2 (human)": {"biological_target": "ADRBK2 (human) (UniProt P35626)"}, "AKT1 (human)": {"biological_target": "AKT1 (human) (UniProt P31749)"}, "CAMKK1 (human)": {"biological_target": "CAMKK1 (human) (UniProt Q8N5S9)", "sequence (Q8N5S9 whole entry, looked up)": "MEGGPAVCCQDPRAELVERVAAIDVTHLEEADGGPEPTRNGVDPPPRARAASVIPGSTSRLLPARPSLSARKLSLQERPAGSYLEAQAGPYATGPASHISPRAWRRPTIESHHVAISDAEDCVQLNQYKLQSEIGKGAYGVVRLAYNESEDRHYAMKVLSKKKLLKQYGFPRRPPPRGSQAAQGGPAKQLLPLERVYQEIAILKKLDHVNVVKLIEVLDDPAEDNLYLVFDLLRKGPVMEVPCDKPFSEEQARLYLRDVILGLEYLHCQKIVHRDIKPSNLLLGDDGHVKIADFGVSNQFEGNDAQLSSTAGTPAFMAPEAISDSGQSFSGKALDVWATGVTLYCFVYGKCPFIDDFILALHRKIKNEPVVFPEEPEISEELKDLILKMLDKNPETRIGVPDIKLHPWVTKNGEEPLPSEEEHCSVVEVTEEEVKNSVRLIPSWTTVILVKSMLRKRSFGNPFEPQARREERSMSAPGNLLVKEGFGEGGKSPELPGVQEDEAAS"}, "CDK3 CCNE1 (human)": {"biological_target": "CDK3 CCNE1 (human) (UniProt Q00526+P24864)"}, "CLK3 (human)": {"biological_target": "CLK3 (human) (UniProt P49761)"}, "CSNK1A1 (human)": {"biological_target": "CSNK1A1 (human) (UniProt P48729)"}, "CSNK1G1 (human)": {"biological_target": "CSNK1G1 (human) (UniProt Q9HCP0)"}, "DYRK2 (human)": {"biological_target": "DYRK2 (human) (UniProt Q92630)"}, "EPHA5 (human)": {"biological_target": "EPHA5 (human) (UniProt P54756)"}, "EPHB1 (human)": {"biological_target": "EPHB1 (human) (UniProt P54762)"}, "EPHB3 (human)": {"biological_target": "EPHB3 (human) (UniProt P54753)", "sequence (P54753 whole entry, looked up)": "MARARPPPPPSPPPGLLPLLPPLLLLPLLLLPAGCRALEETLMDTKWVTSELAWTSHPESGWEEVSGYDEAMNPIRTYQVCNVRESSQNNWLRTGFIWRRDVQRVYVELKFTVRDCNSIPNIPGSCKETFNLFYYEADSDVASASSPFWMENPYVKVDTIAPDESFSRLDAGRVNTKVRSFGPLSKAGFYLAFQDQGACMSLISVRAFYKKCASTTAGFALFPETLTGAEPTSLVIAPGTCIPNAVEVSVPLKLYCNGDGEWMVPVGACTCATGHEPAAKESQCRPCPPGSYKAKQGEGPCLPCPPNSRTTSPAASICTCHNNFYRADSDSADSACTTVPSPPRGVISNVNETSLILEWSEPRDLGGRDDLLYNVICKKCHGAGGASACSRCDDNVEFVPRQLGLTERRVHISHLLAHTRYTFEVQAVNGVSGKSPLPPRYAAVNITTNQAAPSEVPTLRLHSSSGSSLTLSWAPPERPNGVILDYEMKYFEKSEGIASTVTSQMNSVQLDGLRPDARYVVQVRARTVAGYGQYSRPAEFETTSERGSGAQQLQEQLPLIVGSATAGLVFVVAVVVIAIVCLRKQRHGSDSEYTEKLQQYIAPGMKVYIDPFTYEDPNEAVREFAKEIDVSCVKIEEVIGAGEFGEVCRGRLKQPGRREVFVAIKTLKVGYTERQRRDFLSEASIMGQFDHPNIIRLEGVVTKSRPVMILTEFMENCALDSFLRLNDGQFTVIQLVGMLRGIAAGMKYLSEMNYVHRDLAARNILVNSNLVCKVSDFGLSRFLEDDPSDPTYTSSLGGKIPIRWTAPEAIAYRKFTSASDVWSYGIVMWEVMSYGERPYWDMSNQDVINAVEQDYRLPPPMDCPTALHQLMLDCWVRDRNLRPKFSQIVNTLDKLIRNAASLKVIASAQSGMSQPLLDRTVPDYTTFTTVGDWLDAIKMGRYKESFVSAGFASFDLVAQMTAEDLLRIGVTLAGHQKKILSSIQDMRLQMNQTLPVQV"}, "FER (human)": {"biological_target": "FER (human) (UniProt P16591)"}, "FLT3 (human)": {"biological_target": "FLT3 (human) (UniProt P36888)"}, "GRK6 (human)": {"biological_target": "GRK6 (human) (UniProt P43250)"}, "INSRR (human)": {"biological_target": "INSRR (human) (UniProt P14616)"}, "IRAK1 (human)": {"biological_target": "IRAK1 (human) (UniProt P51617)"}, "IRAK4 (human)": {"biological_target": "IRAK4 (human) (UniProt Q9NWZ3)", "sequence (Q9NWZ3 whole entry, looked up)": "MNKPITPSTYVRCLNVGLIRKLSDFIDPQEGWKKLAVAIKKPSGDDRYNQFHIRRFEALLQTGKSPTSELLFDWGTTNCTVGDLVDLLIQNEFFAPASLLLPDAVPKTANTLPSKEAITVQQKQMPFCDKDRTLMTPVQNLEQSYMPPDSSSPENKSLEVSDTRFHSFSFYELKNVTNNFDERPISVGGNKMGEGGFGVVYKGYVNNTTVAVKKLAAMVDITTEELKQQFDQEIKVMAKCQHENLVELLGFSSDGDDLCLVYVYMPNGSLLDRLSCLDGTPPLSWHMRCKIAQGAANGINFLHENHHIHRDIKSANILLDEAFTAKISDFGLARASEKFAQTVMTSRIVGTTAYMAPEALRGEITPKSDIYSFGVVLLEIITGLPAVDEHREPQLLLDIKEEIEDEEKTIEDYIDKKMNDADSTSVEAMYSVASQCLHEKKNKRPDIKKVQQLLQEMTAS"}, "LIMK1 (human)": {"biological_target": "LIMK1 (human) (UniProt P53667)"}, "MAP3K5 (human)": {"biological_target": "MAP3K5 (human) (UniProt Q99683)"}, "MAP4K2 (human)": {"biological_target": "MAP4K2 (human) (UniProt Q12851)"}, "MAPK10 (human)": {"biological_target": "MAPK10 (human) (UniProt P53779)"}, "MARK3 (human)": {"biological_target": "MARK3 (human) (UniProt P27448)"}, "NEK1 (human)": {"biological_target": "NEK1 (human) (UniProt Q96PY6)"}, "NEK11 (human)": {"biological_target": "NEK11 (human) (UniProt Q8NG66)"}, "NEK3 (human)": {"biological_target": "NEK3 (human) (UniProt P51956)", "sequence (P51956 whole entry, looked up)": "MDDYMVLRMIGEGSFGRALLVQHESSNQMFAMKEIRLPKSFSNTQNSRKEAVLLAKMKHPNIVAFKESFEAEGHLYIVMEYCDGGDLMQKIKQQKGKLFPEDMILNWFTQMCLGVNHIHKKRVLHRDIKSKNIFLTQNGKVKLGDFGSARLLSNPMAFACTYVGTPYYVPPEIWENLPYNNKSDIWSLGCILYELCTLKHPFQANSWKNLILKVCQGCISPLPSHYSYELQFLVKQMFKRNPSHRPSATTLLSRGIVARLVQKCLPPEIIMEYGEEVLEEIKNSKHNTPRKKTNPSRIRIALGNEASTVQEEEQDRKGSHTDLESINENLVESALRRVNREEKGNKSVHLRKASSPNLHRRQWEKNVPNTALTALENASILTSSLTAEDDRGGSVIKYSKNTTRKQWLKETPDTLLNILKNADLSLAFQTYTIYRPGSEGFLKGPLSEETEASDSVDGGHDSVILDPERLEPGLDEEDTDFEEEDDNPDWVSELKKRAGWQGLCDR"}, "NEK6 (human)": {"biological_target": "NEK6 (human) (UniProt Q9HC98)"}, "NLK (human)": {"biological_target": "NLK (human) (UniProt Q9UBE8)"}, "PDGFRB (human)": {"biological_target": "PDGFRB (human) (UniProt P09619)", "sequence (P09619 whole entry, looked up)": "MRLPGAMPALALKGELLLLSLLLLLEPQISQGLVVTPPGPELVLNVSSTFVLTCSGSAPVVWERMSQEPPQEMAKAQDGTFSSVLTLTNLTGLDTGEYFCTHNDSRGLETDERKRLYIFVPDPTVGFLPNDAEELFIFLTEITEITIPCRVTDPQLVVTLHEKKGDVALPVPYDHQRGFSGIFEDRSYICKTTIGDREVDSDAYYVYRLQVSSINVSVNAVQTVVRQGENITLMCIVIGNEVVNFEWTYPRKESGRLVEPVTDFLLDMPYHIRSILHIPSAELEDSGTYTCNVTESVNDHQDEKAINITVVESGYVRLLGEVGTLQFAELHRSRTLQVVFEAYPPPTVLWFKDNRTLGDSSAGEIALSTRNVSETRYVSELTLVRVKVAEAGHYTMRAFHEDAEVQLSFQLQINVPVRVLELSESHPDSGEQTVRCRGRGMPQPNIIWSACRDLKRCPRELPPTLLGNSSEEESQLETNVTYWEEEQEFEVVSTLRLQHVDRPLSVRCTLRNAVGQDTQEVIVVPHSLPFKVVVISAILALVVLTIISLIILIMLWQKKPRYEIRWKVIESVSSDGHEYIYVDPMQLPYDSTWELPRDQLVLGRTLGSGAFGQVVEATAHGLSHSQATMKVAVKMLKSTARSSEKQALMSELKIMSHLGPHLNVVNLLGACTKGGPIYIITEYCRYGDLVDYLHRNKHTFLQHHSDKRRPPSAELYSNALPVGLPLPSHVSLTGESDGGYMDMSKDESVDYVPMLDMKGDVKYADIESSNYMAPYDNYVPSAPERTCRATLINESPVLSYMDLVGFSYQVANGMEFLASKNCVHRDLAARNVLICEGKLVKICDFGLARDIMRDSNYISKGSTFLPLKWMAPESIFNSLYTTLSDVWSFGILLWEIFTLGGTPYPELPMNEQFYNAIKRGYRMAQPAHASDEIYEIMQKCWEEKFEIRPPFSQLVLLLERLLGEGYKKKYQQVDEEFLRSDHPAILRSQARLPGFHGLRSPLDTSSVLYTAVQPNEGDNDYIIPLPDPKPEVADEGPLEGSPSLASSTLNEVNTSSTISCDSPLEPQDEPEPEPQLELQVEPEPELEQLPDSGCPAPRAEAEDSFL"}, "PIM1 (human)": {"biological_target": "PIM1 (human) (UniProt P11309)"}, "PRKCB1 (human)": {"biological_target": "PRKCB1 (human) (UniProt P05771)"}, "PRKCE (human)": {"biological_target": "PRKCE (human) (UniProt Q02156)"}, "PRKCI (human)": {"biological_target": "PRKCI (human) (UniProt P41743)"}, "PRKD1 (human)": {"biological_target": "PRKD1 (human) (UniProt Q15139)", "sequence (Q15139 whole entry, looked up)": "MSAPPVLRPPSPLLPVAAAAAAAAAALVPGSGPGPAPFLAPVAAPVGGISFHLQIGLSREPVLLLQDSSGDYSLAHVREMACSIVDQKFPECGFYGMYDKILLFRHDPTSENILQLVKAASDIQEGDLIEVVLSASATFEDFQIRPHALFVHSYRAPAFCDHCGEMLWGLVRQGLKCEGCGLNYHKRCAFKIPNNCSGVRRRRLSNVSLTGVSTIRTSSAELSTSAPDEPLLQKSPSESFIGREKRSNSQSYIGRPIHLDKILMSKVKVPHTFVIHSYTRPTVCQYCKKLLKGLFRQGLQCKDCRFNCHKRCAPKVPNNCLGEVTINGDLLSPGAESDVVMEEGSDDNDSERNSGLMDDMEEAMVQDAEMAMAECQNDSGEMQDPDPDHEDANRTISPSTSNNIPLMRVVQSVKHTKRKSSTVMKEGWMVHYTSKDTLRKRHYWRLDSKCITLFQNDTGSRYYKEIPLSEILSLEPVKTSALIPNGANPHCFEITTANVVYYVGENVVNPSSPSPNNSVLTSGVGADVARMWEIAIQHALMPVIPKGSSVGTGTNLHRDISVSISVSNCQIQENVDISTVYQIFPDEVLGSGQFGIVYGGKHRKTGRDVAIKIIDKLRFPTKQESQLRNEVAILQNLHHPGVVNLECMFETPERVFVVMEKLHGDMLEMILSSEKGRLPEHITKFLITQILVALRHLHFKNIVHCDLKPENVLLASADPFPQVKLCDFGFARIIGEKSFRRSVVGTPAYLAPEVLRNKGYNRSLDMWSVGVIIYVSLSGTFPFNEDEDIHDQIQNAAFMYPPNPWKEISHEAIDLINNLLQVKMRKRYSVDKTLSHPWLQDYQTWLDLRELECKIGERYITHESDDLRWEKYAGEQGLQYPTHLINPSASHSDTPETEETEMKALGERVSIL"}, "PRKX (human)": {"biological_target": "PRKX (human) (UniProt P51817)"}, "RIPK2 (human)": {"biological_target": "RIPK2 (human) (UniProt O43353)"}, "RPS6KA4 KD2 (human)": {"biological_target": "RPS6KA4 KD2 (human) (UniProt O75676)"}, "RPS6KA5 KD2 (human)": {"biological_target": "RPS6KA5 KD2 (human) (UniProt O75582)"}, "SRC (human)": {"biological_target": "SRC (human) (UniProt P12931)", "sequence (P12931 whole entry, looked up)": "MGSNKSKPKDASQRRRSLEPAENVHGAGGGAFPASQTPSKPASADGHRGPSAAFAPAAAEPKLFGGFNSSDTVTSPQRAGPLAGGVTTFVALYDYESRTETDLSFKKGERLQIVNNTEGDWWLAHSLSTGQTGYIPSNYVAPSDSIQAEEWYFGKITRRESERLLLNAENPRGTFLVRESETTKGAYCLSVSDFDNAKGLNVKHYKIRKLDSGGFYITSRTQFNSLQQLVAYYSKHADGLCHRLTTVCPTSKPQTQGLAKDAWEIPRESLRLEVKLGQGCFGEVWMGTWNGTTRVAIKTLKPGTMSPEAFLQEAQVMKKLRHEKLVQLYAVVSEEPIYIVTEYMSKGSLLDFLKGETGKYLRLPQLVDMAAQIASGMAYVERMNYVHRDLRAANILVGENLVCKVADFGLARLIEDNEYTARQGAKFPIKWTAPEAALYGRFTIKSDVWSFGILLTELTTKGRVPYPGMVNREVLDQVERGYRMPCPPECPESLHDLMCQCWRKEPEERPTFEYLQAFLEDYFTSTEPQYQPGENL"}, "SRPK1 (human)": {"biological_target": "SRPK1 (human) (UniProt Q96SB4)"}, "SYK (human)": {"biological_target": "SYK (human) (UniProt P43405)"}, "TSSK2 (human)": {"biological_target": "TSSK2 (human) (UniProt Q96PF2)"}, "YES1 (human)": {"biological_target": "YES1 (human) (UniProt P07947)"}}, "data": [{"smiles": "COc1cc2ncnc(Nc3ccc(O)c(Br)c3)c2cc1OC", "values": [{"measurement": "residual activity", "setting": "ADRBK2 (human)", "value": 103, "unit": "%"}, {"measurement": "residual activity", "setting": "AKT1 (human)", "value": 94, "unit": "%"}, {"measurement": "residual activity", "setting": "CAMKK1 (human)", "value": 95.8, "unit": "%"}, {"measurement": "residual activity", "setting": "CDK3 CCNE1 (human)", "value": 93.5, "unit": "%"}, {"measurement": "residual activity", "setting": "CLK3 (human)", "value": 54.1, "unit": "%"}, {"measurement": "residual activity", "setting": "CSNK1A1 (human)", "value": 89.6, "unit": "%"}, {"measurement": "residual activity", "setting": "CSNK1G1 (human)", "value": 92.4, "unit": "%"}, {"measurement": "residual activity", "setting": "DYRK2 (human)", "value": 60, "unit": "%"}, {"measurement": "residual activity", "setting": "EPHA5 (human)", "value": 72.3, "unit": "%"}, {"measurement": "residual activity", "setting": "EPHB1 (human)", "value": 81.4, "unit": "%"}, {"measurement": "residual activity", "setting": "EPHB3 (human)", "value": 88.1, "unit": "%"}, {"measurement": "residual activity", "setting": "FER (human)", "value": 85.2, "unit": "%"}, {"measurement": "residual activity", "setting": "FLT3 (human)", "value": 6.34, "unit": "%"}, {"measurement": "residual activity", "setting": "GRK6 (human)", "value": 104, "unit": "%"}, {"measurement": "residual activity", "setting": "INSRR (human)", "value": 96.8, "unit": "%"}, {"measurement": "residual activity", "setting": "IRAK1 (human)", "value": 75.5, "unit": "%"}, {"measurement": "residual activity", "setting": "IRAK4 (human)", "value": 91.1, "unit": "%"}, {"measurement": "residual activity", "setting": "LIMK1 (human)", "value": 85.1, "unit": "%"}, {"measurement": "residual activity", "setting": "MAP3K5 (human)", "value": 98.6, "unit": "%"}, {"measurement": "residual activity", "setting": "MAP4K2 (human)", "value": 101, "unit": "%"}, {"measurement": "residual activity", "setting": "MAPK10 (human)", "value": 89, "unit": "%"}, {"measurement": "residual activity", "setting": "MARK3 (human)", "value": 98.8, "unit": "%"}, {"measurement": "residual activity", "setting": "NEK1 (human)", "value": 90.5, "unit": "%"}, {"measurement": "residual activity", "setting": "NEK11 (human)", "value": 103, "unit": "%"}, {"measurement": "residual activity", "setting": "NEK3 (human)", "value": 88.4, "unit": "%"}, {"measurement": "residual activity", "setting": "NEK6 (human)", "value": 100, "unit": "%"}, {"measurement": "residual activity", "setting": "NLK (human)", "value": 76.2, "unit": "%"}, {"measurement": "residual activity", "setting": "PDGFRB (human)", "value": 93.7, "unit": "%"}, {"measurement": "residual activity", "setting": "PIM1 (human)", "value": 75.5, "unit": "%"}, {"measurement": "residual activity", "setting": "PRKCB1 (human)", "value": 96.6, "unit": "%"}, {"measurement": "residual activity", "setting": "PRKCE (human)", "value": 93.2, "unit": "%"}, {"measurement": "residual activity", "setting": "PRKCI (human)", "value": 94, "unit": "%"}, {"measurement": "residual activity", "setting": "PRKD1 (human)", "value": 70.1, "unit": "%"}, {"measurement": "residual activity", "setting": "PRKX (human)", "value": 89.2, "unit": "%"}, {"measurement": "residual activity", "setting": "RIPK2 (human)", "value": 36.7, "unit": "%"}, {"measurement": "residual activity", "setting": "RPS6KA4 KD2 (human)", "value": 93.8, "unit": "%"}, {"measurement": "residual activity", "setting": "RPS6KA5 KD2 (human)", "value": 93.4, "unit": "%"}, {"measurement": "residual activity", "setting": "SRC (human)", "value": 77.5, "unit": "%"}, {"measurement": "residual activity", "setting": "SRPK1 (human)", "value": 91.8, "unit": "%"}, {"measurement": "residual activity", "setting": "SYK (human)", "value": 86.7, "unit": "%"}, {"measurement": "residual activity", "setting": "TSSK2 (human)", "value": 98.7, "unit": "%"}, {"measurement": "residual activity", "setting": "YES1 (human)", "value": 34.6, "unit": "%"}]}]}
